Data on 7 molecules can be found in patent US20150183737A1, “COMPOSITIONS AND METHODS FOR SUBSTRATE-SELECTIVE INHIBITION OF ENDOCANNABINOID OXYGENATION” (Vanderbilt University, priority 2012, published 2015).

In one series the target is T1, purified murine COX-2 (Mus musculus, UniProt Q05769).
T1 sequence (Q05769 18-604): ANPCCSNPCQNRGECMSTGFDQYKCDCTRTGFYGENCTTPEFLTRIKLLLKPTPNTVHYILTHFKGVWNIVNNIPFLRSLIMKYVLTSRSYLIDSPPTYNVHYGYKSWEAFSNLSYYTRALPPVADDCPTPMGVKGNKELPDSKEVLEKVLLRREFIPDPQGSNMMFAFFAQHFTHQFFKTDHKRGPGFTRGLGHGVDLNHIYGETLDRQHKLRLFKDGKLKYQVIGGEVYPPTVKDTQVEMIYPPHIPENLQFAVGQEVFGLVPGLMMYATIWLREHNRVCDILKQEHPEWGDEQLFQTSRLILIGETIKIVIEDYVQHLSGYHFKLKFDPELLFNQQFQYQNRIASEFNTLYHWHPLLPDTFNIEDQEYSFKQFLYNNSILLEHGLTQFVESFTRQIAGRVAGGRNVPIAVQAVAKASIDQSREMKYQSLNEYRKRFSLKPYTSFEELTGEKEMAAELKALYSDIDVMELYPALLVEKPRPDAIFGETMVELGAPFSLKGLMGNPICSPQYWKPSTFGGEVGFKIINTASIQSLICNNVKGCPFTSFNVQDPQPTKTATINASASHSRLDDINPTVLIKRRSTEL
The experiment in a line: Inhibition of mCOX-2 dependent oxygenation of 2-AG and AA by profens in vitro. The settings on record: achiral profens; for inhibition at 10 µM: at 10 μM inhibitor; for IC50: murine COX-2 40 nM, 3 min preincubation, 37° C., 30 s, mean ± SD, read-out: 2-AG IC50. The format is biochemical. Set-up: made in house; host or cells: insect cells. The method, then: Desired concentrations of inhibitor in DMSO or blank (DMSO) were incubated with mCOX-2 (40 nM) for 3 minutes in 100 mM Tris-HCl with 0.5 mM phenol, pH 8.0 at 37° C. After pre-incubation of enzyme and inhibitor, 5 μM of AA or 2-AG was added at 37° C. Thirty seconds later, the reaction was quenched with 200 μL of ice-cold ethyl acetate containing 0.5% acetic acid (v/v) and 1 μM PGE2-d4 and PGE2-G-d5. The solution was then vortexed and the aqueous layer frozen. The organic layer was removed and evaporated to near-dryness under nitrogen. The samples were reconstituted in 1:1 MeOH:H2O and chromatographed using a LUNA® C18(2) column (50 2 mm, 3 μm; Phenomenex, Torrance, Calif., United States of America). […] Analyte peak areas were normalized to the appropriate internal standard to determine the amount of product formation, and inhibition was determined by normalization to a DMSO control.

The target of series [1] is T2, COX-2 in RAW 264.7 macrophages (Mus musculus, UniProt Q05769).
T2 construct: endogenous in cells; host or cells: RAW 264.7 macrophages stimulated with LPS (and GM-CSF / interferon γ where described)
T2 sequence (Q05769 18-604): T1 sequence (Q05769 18-604)
Briefly: RAW cells assay: oxygenation of 2-AG and AA. The settings on record: for inhibition at 25 µM: at 25 μM compound; for IC50: conversion of 2-AG to PGE2-G/PGD2-G. The format is cell-based. The method, then: Two hours after stimulation, varying doses of inhibitor were added to the cell media and 6 hr after stimulation the media were collected and analyzed by LC-MS-MS for prostaglandin levels.
The cells were then stimulated overnight with 20 ng/ml of granulocyte-macrophage colony-stimulating factor. The media was replaced in the morning with DMEM with GLUTAMAX® and the cells were stimulated with 100 ng/ml lipopolysaccharide and 20 units/ml interferon γ. Two hours after stimulation varying doses of inhibitor were added to the cell media and 6 hours after stimulation the media was collected and extracted in acidified ethyl acetate spiked with deuterated internal standards. The organic layer was dried down under a stream of nitrogen gas and reconstituted in 1:1 water:methanol and analyzed by LC-MS/MS for prostaglandin levels using the same instrumentation, column, solvents and conditions as described for the in vitro assay above.

Series [2] can be described thus: In vivo mouse assay: plasma levels. Details: species or system C57BL/6 mice.
The next series has as its target T3, FAAH (Homo sapiens, UniProt O00519).
T3 sequence (O00519 1-579): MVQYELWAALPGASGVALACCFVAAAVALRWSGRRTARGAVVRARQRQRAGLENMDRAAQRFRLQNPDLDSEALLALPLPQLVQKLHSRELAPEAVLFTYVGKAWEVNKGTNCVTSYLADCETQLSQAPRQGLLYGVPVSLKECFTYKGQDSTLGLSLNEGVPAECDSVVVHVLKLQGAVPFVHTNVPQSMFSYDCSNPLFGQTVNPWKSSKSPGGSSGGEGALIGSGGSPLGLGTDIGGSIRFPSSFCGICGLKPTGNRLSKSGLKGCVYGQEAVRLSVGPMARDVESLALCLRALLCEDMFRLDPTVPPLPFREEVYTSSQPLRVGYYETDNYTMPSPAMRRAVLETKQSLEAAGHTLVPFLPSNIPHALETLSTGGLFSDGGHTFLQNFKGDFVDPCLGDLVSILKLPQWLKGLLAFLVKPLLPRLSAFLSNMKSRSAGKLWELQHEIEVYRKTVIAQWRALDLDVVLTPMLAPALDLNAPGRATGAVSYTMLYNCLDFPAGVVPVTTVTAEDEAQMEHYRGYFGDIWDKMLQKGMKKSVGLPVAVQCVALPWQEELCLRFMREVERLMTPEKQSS
As to conditions: in vitro; Bishay et al., 2010; cited from earlier work.

Series [3] can be described thus: Chiral HPLC of (R)-profen-treated DRG extracts (racemization). The format is in vitro ADME, mouse. From the text:
A Daicel chiralpak chiral column was used in conjunction with a normal-phase HPLC gradient to separate the profen enantiomers.

Series [4] concerns peripheral tissue eCB, NAE, MAG and PG levels. The experiment in a line: Peripheral tissue NAE, MAG and PG levels after i.p. injection. It is filed as in vivo, mice. As to conditions: liver. The method, then:
(§1) Mice were sacrificed by cervical dislocation and decapitation. The brain, lungs, liver, stomach, small intestines, and kidneys were then rapidly removed and frozen on a metal block in dry ice. The tissue was then placed in a tube and stored at −80° C. until extraction, usually one day after harvesting. For PG and eCB analysis, lipid extraction from tissue was carried out as described in Patel et al., 2009.
Analytes were quantified using LC-MS/MS on a Quantum triple-quadrupole mass spectrometer in positive-ion mode using selected reaction monitoring. Detection of eicosanoids was performed as described in Kingsley & Marnett, 2007. For fatty acid analysis the mobile phases used were 80 μM AgOAc with 0.1% (v/v) acetic acid in H2O (solvent A) and 120 μM AgOAc with 0.1% (v/v) acetic acid in MeOH (solvent B). The analytes were eluted using a gradient from 20% A to 99% B over 5 minutes. The transitions used were m/z 300→282 for PEA, m/z 328→310 for SEA, m/z 434→416 for OEA, m/z 456→438 for AEA, m/z 464→446 for AEA-d8, m/z 331→257 for 2-PG, m/z 359→285 for 2-SG, m/z 463→389 for 2-OG, m/z 485→411 for 2-AG, m/z 493→419 for 2-AG-d8, m/z 519→409 for AA, and m/z 527→417 for AA-d8. Peak areas for the analytes were normalized to the appropriate internal standard and then normalized to tissue mass for in vivo samples. […]

Series [5] relates to ICR mice. Briefly: Novel open field test. It is filed as in vivo. The settings on record: 10 mg/kg. The method, then: Animals were tested for open-field activity in a novel environment one hour after i.p. injection of compound as described in Sumislawski et al., 2011. Briefly, one-hour sessions were performed using automated experimental chambers (27.9 27.9 cm; MEDOFA-510; MED Associates, Ga., Vermont, United States of America) under constant illumination within a sound-attenuated room. Analysis of open field activity was performed using Activity Monitor v5.10 (MED Associates).

The test system of series [6] is ICR mice. Briefly: Elevated plus-maze (EPM). It is filed as in vivo. As to conditions: 10 mg/kg.
Series [7] concerns brain eCB, AA and PG levels. Briefly: Brain eCB, NAE, MAG, AA and PG levels after i.p. injection. The format is in vivo, mice. As to conditions: 10 mg/kg i.p., 2 hours. The method, then:
5-7 week old male ICR mice were used for all experiments with the exception of knockout animals (Harlan, Indianapolis, Ind., United States of America). Mice were housed 5 per […]. All behavioral tests were conducted during the light cycle between 0900 and 1700. KO and WT littermate controls for FAAH^(−/−) and COX-2^(−/−) mice were derived from heterozygote breeding pairs, bred and genotyped as described in Uddin et al., 2011. CB1^(−/−) mice were bred from homozygote breeding pairs and genotyped as described in Pan et al., 2008. Mice were group-housed on a 12:12 light-dark cycle (lights on at 06:00), with food and water available ad libitum. All animal studies were approved by the Vanderbilt Institutional Animal Care and Use Committee and conducted in accordance with the Guide for the Care and Use of Laboratory Animals of the United States National Institutes of Health.
as §1
Analytes were quantified using LC-MS/MS on a Quantum triple-quadrupole mass spectrometer in positive-ion mode using selected reaction monitoring. Detection of eicosanoids was performed as described in Kingsley & Marnett, 2007. For fatty acid analysis the mobile phases used were 80 μM AgOAc with 0.1% (v/v) acetic acid in H2O (solvent A) and 120 μM AgOAc with 0.1% (v/v) acetic acid in MeOH (solvent B). The analytes were eluted using a gradient from 20% A to 99% B over 5 minutes. The transitions used were m/z 300→282 for PEA, m/z 328→310 for SEA, m/z 434→416 for OEA, m/z 456→438 for AEA, m/z 464→446 for AEA-d8, m/z 331→257 for 2-PG, m/z 359→285 for 2-SG, m/z 463→389 for 2-OG, m/z 485→411 for 2-AG, m/z 493→419 for 2-AG-d8, m/z 519→409 for AA, and m/z 527→417 for AA-d8. Peak areas for the analytes were normalized to the appropriate internal standard and then normalized to tissue mass for in vivo samples.

Series [8] has as its system ICR mice. Briefly: Light-dark box. It is filed as in vivo. As to conditions: 10 mg/kg.
The subject of series [9] is ICR mice. The experiment in a line: Rectal temperature, catalepsy and hot plate antinociception. The settings on record: 10 mg/kg i.p.
Where [10] appears, read: AA 5 μM, read-out: AA % Inhibition.

Structures are written as SMILES. Entries after “also recorded” stand apart in the source; their conditions may differ. Like-named read-outs stand apart in the source and are kept apart here. Bounds are passed on as bounds.

With `O=C(O)Cc1ccc(-c2ccccc2)c(F)c1` [Compound 3a, 2-(2-fluoro-[1,1′-biphenyl]-4-yl)acetic acid], the inhibition at 10 µM on purified murine COX-2 (setting [10]) came out at 7%. The inhibition at 5 µM in series [1] (RAW264.7, at 5 μM compound) turned out to be 60%. Further, the Average plasma concentration result in series [2] (10 mg/kg i.p. at 0, 8, 24, 32, 48 and 56 hr, sixteen hr after the last injection) is on record as “not detected”. For the same molecule, the half-life in series [2] (male, C57BL/6, mouse, plasma, intraperitoneal, 10 mg/kg, read-out: Half-life (t1/2) in mouse plasma) lay in the range of 2 to 3 h. Further, the concentration at 72 h in series [2] (single 10 mg/kg i.p. injection, 1 hr) came out at 68 µM; in series [2] (single 10 mg/kg i.p. injection, 2 hr), 50 µM; in series [2] (single 10 mg/kg i.p. injection, 4 hr) it was 6 µM.

Regarding `CC(C)(C(=O)O)c1ccc(-c2ccccc2)c(F)c1` [Compound 4a, 2-(2-fluoro-[1,1′-biphenyl]-4-yl)-2-methylpropanoic acid], the inhibition at 10 µM at purified murine COX-2 (setting [10]) was 5%. Further, the IC50 on purified murine COX-2 (2-AG 5 μM) is 1.1 µM; in [1] it was 5.2 µM. The same molecule displayed an inhibition at 25 µM in series [1] (RAW264.7) of 40%.

Consider `O=C(O)C1(c2ccc(-c3ccccc3)c(F)c2)CC1` [Compound 5a, 1-(2-fluoro-[1,1′-biphenyl]-4-yl)cyclopropanecarboxylic acid], for which the inhibition at 10 µM on purified murine COX-2 (setting [10]) came out at 0%; at purified murine COX-2 (read-out: Maximum inhibition of 2-AG oxygenation, 2-AG 5 μM) it was 87%. Also, the IC50 was 2.3 µM on purified murine COX-2 (2-AG 5 μM) and 10.2 µM in [1]. The molecule also registered an inhibition at 25 µM in [1] (RAW264.7) of 55%.

`C[C@@H](C(=O)O)c1ccc(-c2ccccc2)c(F)c1` [Compound 7a, (R)-flurbiprofen]: the IC50 at FAAH was more than 1000 µM. The same molecule registered a concentration at 72 h in series [2] (male, C57BL/6, mouse, plasma, intraperitoneal, 10 mg/kg i.p. at 0, 8, 24, 32, 48 and 56 hr, sixteen hr after the last injection) of 20 µM. The “Conversion to the (S)-enantiomer” value in series [3] is reported as “did not occur”.

Take `CC(C)Cc1ccc([C@@H](C)C(=O)O)cc1` [Compound 7c, (R)-ibuprofen]: the “Conversion to the (S)-enantiomer” value in series [3] (DRG extracts, chiral HPLC) is listed as “did not occur”.

Turning to `O=C(Nc1cccnc1)N1CCC(Cc2cccc(Oc3ccc(C(F)(F)F)cn3)c2)CC1` [PF-3845, N-3-pyridinyl-4-[[3-[[5-(trifluoromethyl)-2-pyridinyl]oxy]phenyl]methyl]-1-piperidinecarboxamide, reference compound], the “Liver NAE levels” value in series [4] is listed as “robust increases”. The “Center distance travelled and center time in the open-field arena” value in the series on ICR mice [5] was “increased”. Moreover, in the series on ICR mice [6], the Open arm latency result was “significantly reduced; also recorded: decreased” and the “Other EPM parameters (open arm time, total distance traveled)” value is listed as “did not affect; also recorded: did not increase”. Moreover, in [7], the “Brain levels of NAEs other than AEA” value is listed as “robustly increased”. In addition, the “Brain AEA levels” value in series [7] (vs vehicle) is listed as “robustly increased”. In the series on ICR mice [8], the Light-zone time entry was “significantly increased”, the “Number of light-zone entries” value was “significantly increased” and the “Overall locomotor activity in the light-dark box” value is listed as “without significantly affecting”.

As for `Cc1c(C(=O)c2cccc3ccccc23)c2cccc3c2n1[C@H](CN1CCOCC1)CO3` [Win-55212-2], in the series on ICR mice [9], the “Antinociception in the hot plate test” value is listed as “induced”, the Catalepsy entry was “induced” and the “Hypothermia (rectal temperature)” value is “induced”.
